Assay results as given in patent EP4725946A1, “IRAK4 DEGRADATION AGENT AND USE THEREOF” (Guangzhou Unirise Pharmaceutical Co., Ltd., priority 2023, dated 2024).
Like-named read-outs stand apart in the source and are kept apart here.

Target: T1, IRAK4 protein (Homo sapiens, UniProt Q9NWZ3)
T1 sequence (Q9NWZ3 1-460): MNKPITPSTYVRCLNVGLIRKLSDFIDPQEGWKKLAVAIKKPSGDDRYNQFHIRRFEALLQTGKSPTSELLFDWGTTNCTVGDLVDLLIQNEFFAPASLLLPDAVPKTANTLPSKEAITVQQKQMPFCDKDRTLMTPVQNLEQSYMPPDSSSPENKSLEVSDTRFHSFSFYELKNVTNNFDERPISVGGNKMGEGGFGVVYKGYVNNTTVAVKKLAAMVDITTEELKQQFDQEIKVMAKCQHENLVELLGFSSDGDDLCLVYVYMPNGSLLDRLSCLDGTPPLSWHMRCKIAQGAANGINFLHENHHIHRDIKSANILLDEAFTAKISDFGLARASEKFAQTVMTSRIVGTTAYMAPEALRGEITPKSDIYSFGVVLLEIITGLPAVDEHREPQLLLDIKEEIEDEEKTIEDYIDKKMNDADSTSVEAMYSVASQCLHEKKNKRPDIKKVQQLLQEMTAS
Test: IRAK4 Degradation Assay in THP-1 Cells (Western Blot)
Format: cell-based
Parameters: endogenous in cells; host or cells: THP-1 cells
Details: 24 hours, 0.0128 to 1000 nM, IRAK4 protein level by Western Blot; for Dmax: read-out: Dmax%
Method: In a 6-well cell culture plate, an appropriate number of THP-1 cells were seeded. The plate was placed in a 5% CO2 incubator at 37°C for overnight culture. Then, the test compound's dimethyl sulfoxide solution was added, with the final concentration ranging from 0.0128 to 1000 nM. After continuous culture for 24 hours, the culture medium was removed, and the cells were collected in a 1.5 mL centrifuge tube. After adding lysis buffer and grinding thoroughly, the mixture was placed on ice for 30 minutes. It was then centrifuged at 15,000 xg and 4°C for 20 minutes. The supernatant was taken, and the level of IRAK4 protein was detected by Western Blot.

| SMILES | Dmax (THP-1, THP-1 cells) [%] | DC50 (THP-1 cells, read-out: DC50) [nM] | Dmax% (THP-1 cells) [%] | Dmax (THP-1 cells) [%] | DC50 (THP-1 cells) [nM] |
| --- | --- | --- | --- | --- | --- |
| Cn1c(=O)n(C2CCC(=O)NC2=O)c2cccc(C#CCO[C@H]3CC[C@H](C(=O)N4CCC5(CC4)Cc4cc(NC(=O)c6cnn7cccnc67)c(N6CCC(CO)CC6)cc4O5)CC3)c21 (relative stereo) [Compound 74] | 86.2 | 2.78 | – | – | – |
| O=C1CCC(N2Cc3cc(N4CCC(CN5CCC6(CC5)Cc5cc(NC(=O)c7cnn8cccnc78)c(N7CCC(CO)CC7)cc5O6)CC4)ccc3C2=O)C(=O)N1 (single isomer, unassigned) [Example 84] | 88.3 | 1.13 | – | – | – |
| O=C1CCC(N2Cc3cc(N4CCC(CN5CCC6(CC5)Cc5cc(NC(=O)c7cnn8cccnc78)c(N7CCC(CO)CC7)cc5O6)CC4)ccc3C2=O)C(=O)N1 (single isomer, unassigned) [Example 85] | – | 0.66 | 89.8 | – | – |
| Cn1c(=O)n(C2CCC(=O)NC2=O)c2cccc(CN3CCC(CCN4CCC5(CC4)Cc4cc(NC(=O)c6cnn7cccnc67)c(N6CCC(CO)CC6)cc4O5)CC3)c21 (stereo not drawn) [Compound 1] | 91.9 | 1.09 | – | – | – |
| Cn1c(=O)n(C2CCC(=O)NC2=O)c2cccc(CN3CCC(CCN4CCC5(CC4)Cc4cc(NC(=O)c6coc7cccnc67)c(N6CCC(CO)CC6)cc4O5)CC3)c21 (stereo not drawn) [Compound 3] | – | 4.14 | – | 93.5 | – |
| Cn1c(=O)n(C2CCC(=O)NC2=O)c2cccc(CN3CCC(CCN4CCC5(CC4)Cc4cc(NC(=O)c6cnn7cccnc67)c(N6CCN(CC(F)F)CC6)cc4O5)CC3)c21 (stereo not drawn) [Compound 6] | – | 9.65 | – | 85.1 | – |
| Cn1c(=O)n(C2CCC(=O)NC2=O)c2cccc(CN3CCC(CCN4CCC5(CC4)Oc4cc(NC(=O)c6coc7cccnc67)c(N6CCC(CO)CC6)cc4O5)CC3)c21 (stereo not drawn) [Compound 14] | – | 3.4 | – | 89.2 | – |
| Cn1c(=O)n(C2CCC(=O)NC2=O)c2cccc(C#CCOC3CCN(CCN4CCC5(CC4)Cc4cc(NC(=O)c6cnn7cccnc67)c(N6CCC(CO)CC6)cc4O5)CC3)c21 (stereo not drawn) [Compound 19] | 87.9 | 2.18 | – | – | – |
| Cn1c(=O)n(C2CCC(=O)NC2=O)c2cccc(C#CCOC3CCN(CCN4CCC5(CC4)Cc4cc(NC(=O)c6coc7cccnc67)c(N6CCC(CO)CC6)cc4O5)CC3)c21 (stereo not drawn) [Compound 21] | – | 3.58 | – | 91.6 | – |
| Cn1c(=O)n(C2CCC(=O)NC2=O)c2cccc(C#CCOC3CCN(CCN4CCC5(Cc6cc(NC(=O)c7coc8cccnc78)c(N7CCC(CO)CC7)cc6O5)C4)CC3)c21 (stereo not drawn) [Compound 23] | – | 3.08 | – | 88.3 | – |
| Cn1c(=O)n(C2CCC(=O)NC2=O)c2cccc(C#CCOC3CCN(CCN4CCC5(CC4)Oc4cc(NC(=O)c6cnn7cccnc67)c(N6CCC(CO)CC6)cc4O5)CC3)c21 (stereo not drawn) [Compound 28] | – | 3.38 | – | 86.5 | – |
| Cn1c(=O)n(C2CCC(=O)NC2=O)c2cccc(C#CCOC3CCN(CCN4CCC5(CC4)Oc4cc(NC(=O)c6coc7cccnc67)c(N6CCC(CO)CC6)cc4O5)CC3)c21 (stereo not drawn) [Compound 29] | – | 7.12 | – | 92.8 | – |
| Cn1c(=O)n(C2CCC(=O)NC2=O)c2cccc(CN3CCC4(CC3)CN(CCN3CCC5(CC3)Cc3cc(NC(=O)c6cnn7cccnc67)c(N6CCC(CO)CC6)cc3O5)C4)c21 (stereo not drawn) [Compound 32] | – | – | – | 95.4 | 1.53 |
| Cn1c(=O)n(C2CCC(=O)NC2=O)c2cccc(CN3CC4(CCN(CCN5CCC6(CC5)Cc5cc(NC(=O)c7cnn8cccnc78)c(N7CCC(CO)CC7)cc5O6)CC4)C3)c21 (stereo not drawn) [Compound 33] | – | – | – | 94.8 | 1.66 |
| COCC1CCN(c2cc3c(cc2NC(=O)c2cnn4cccnc24)CC2(CCN(C[C@H]4CC[C@H](OCC#Cc5cccc6c5n(C)c(=O)n6C5CCC(=O)NC5=O)CC4)CC2)O3)CC1 (stereo partly drawn) [Compound 44] | – | 6.38 | – | 84.9 | – |
| Cn1c(=O)n(C2CCC(=O)NC2=O)c2cccc(C#CCO[C@H]3CC[C@H](CN4CCC5(Cc6cc(NC(=O)c7cnn8cccnc78)c(N7CCC(CO)CC7)cc6O5)C4)CC3)c21 (stereo partly drawn) [Compound 51] | – | 2 | – | 83.9 | – |
| Cn1c(=O)n(C2CCC(=O)NC2=O)c2cccc(C#CCO[C@H]3CC[C@H](CN4CCC5(CC4)Cc4cc(NC(=O)c6coc7cccnc67)c(N6CCC(CO)CC6)cc4C5)CC3)c21 (stereo partly drawn) [Compound 52] | – | 5.25 | – | 89.2 | – |
| Cn1c(=O)n(C2CCC(=O)NC2=O)c2cccc(C#CCO[C@H]3CC[C@H](CN4CCC5(CC4)Cc4cc(NC(=O)c6cnn7cccnc67)c(N6CCC(CO)CC6)cc4C5)CC3)c21 (stereo partly drawn) [Compound 53] | – | 2.77 | – | 77.5 | – |
| Cn1c(=O)n(C2CCC(=O)NC2=O)c2cccc(C#CCO[C@H]3CC[C@H](CN4CCC5(Cc6cc(NC(=O)c7coc8cccnc78)c(N7CCC(CO)CC7)cc6O5)C4)CC3)c21 (stereo partly drawn) [Compound 54] | – | 3.5 | – | 91.1 | – |
| Cn1c(=O)n(C2CCC(=O)NC2=O)c2cccc(C#CCO[C@H]3CC[C@@H](CN4CCC5(CC4)Cc4cc(NC(=O)c6coc7cccnc67)c(N6CCC(CO)CC6)cc4O5)CC3)c21 (stereo partly drawn) [Compound 56] | – | 7.79 | – | 90.4 | – |
| Cn1c(=O)n(C2CCC(=O)NC2=O)c2cccc(C#CCO[C@H]3CC[C@@H](CN4CCC5(Cc6cc(NC(=O)c7cnn8cccnc78)c(N7CCC(CO)CC7)cc6O5)C4)CC3)c21 (stereo partly drawn) [Compound 58] | – | 3.69 | – | 85.6 | – |
| Cn1c(=O)n(C2CCC(=O)NC2=O)c2cccc(C#CCOCCNCCN3CCC4(CC3)Cc3cc(NC(=O)c5cnn6cccnc56)c(N5CCC(CO)CC5)cc3O4)c21 (stereo not drawn) [Compound 59] | 88.6 | 1.17 | – | – | – |
| Cn1nc(N2CCC(=O)NC2=O)c2cccc(CN3CCC(CCN4CCC5(CC4)Cc4cc(NC(=O)c6coc7cccnc67)c(N6CCC(CO)CC6)cc4O5)CC3)c21 [Compound 62] | 82.8 | 7.34 | – | – | – |
| O=C1CCC(N2Cc3c(CN4CCC(CCN5CCC6(CC5)Cc5cc(NC(=O)c7cnn8cccnc78)c(N7CCC(CO)CC7)cc5O6)CC4)cccc3C2=O)C(=O)N1 (stereo not drawn) [Compound 64] | 89.3 | 1.3 | – | – | – |
| O=C1CCC(N2C(=O)c3cc(F)c(N4CCC(CCN5CCC6(CC5)Cc5cc(NC(=O)c7cnn8cccnc78)c(N7CCC(CO)CC7)cc5O6)CC4)cc3C2=O)C(=O)N1 (stereo not drawn) [Compound 72] | 92.6 | 7.7 | – | – | – |
| COC1(CN2CCC3(CC2)Cc2cc(NC(=O)c4cnn5cccnc45)c(N4CCC(CO)CC4)cc2O3)CCN(c2cccc3c2n(C)c(=O)n3C2CCC(=O)NC2=O)CC1 (stereo not drawn) [Example 79] | 89.5 | 1.55 | – | – | – |
| Cn1c(=O)n(C2CCC(=O)NC2=O)c2cccc(C3CC(CN4CCC5(CC4)Cc4cc(NC(=O)c6cnn7cccnc67)c(N6CCC(CO)CC6)cc4O5)C3)c21 (stereo not drawn) [Example 80] | 83.4 | 0.64 | – | – | – |
| Cn1c(=O)n(C2CCC(=O)NC2=O)c2cccc(N3CCC(O)(CC(=O)N4CCC5(CC4)Cc4cc(NC(=O)c6cnn7cccnc67)c(N6CCC(CO)CC6)cc4O5)CC3)c21 (stereo not drawn) [Example 81] | 90.2 | 1.02 | – | – | – |
| O=C1CCC(N2C(=O)c3ccc(N4CCC(CN5CCC6(CC5)Cc5cc(NC(=O)c7cnn8cccnc78)c(N7CCC(CO)CC7)cc5O6)CC4)cc3C2=O)C(=O)N1 (stereo not drawn) [Example 82] | 85.6 | 3.44 | – | – | – |
| Cn1c(=O)n(C2CCC(=O)NC2=O)c2cccc(C#CCO[C@H]3CC[C@H](CN4CCC5(CC4)Cc4cc(NC(=O)c6cnn7cc(Cl)cnc67)c(N6CCC(O)CC6)cc4O5)CC3)c21 (stereo partly drawn) [Example 86] | – | 2.98 | – | 86.2 | – |
